Test results reported in patent publication US5034317A, “Enzyme controlled release system and organic conjugate reactant” (priority 1987, dated 1991).

Legend:
Format in all cases: biochemical
E. coli β-galactosidase = E. coli β-galactosidase (Escherichia coli, UniProt P00722); assay: Enzymatic hydrolysis of conjugate reactants by E. coli β-galactosidase; settings: 25° C., 10^-3 M, E. coli β-galactosidase 7.5 units, pH 7.0 (Table 6)
Source text: (§1) A major advantage provided by the organic conjugate compositions comprising the present invention is the selective ability to discriminate not only between different classes of enzymes, but also to distinguish the same enzyme obtained from different sources. […] Each of the individual, separately derived, beta-galactosidases were commercially obtained and empirically evaluated using the test protocol described previously in Example 6.

[1] = biological target: T1, beef liver β-galactosidase (Bos taurus, UniProt Q58D55); assay: Enzymatic hydrolysis of conjugate reactants by beef liver β-galactosidase; settings: beef liver β-galactosidase 0.66 units; for Measured Rate of Reaction: 25° C., 10^-3 M
T1 sequence (Q58D55 28-653): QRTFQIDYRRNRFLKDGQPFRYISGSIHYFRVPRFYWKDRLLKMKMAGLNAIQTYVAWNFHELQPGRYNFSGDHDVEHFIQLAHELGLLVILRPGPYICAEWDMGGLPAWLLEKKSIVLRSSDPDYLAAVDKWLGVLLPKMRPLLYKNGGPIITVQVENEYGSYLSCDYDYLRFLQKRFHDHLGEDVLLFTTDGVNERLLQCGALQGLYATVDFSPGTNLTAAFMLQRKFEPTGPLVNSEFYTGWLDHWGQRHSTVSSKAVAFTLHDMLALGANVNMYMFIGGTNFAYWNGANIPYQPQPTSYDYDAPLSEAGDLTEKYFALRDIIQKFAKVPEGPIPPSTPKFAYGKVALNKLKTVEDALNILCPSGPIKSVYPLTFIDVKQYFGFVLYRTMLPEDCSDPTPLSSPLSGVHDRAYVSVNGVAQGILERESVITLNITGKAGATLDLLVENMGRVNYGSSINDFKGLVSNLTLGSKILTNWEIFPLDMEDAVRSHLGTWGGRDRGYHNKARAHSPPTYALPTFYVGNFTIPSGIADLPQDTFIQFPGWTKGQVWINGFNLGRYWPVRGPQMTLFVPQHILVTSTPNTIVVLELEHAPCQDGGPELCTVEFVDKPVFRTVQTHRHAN
Source text: as §1

[2] = biological target: Aspergillus oryzae β-galactosidase (Aspergillus oryzae, UniProt Q2UCU3); assay: Enzymatic hydrolysis of conjugate reactants by Aspergillus oryzae β-galactosidase (release of displaceable ligand)
Source text: as §1

[3] = biological target: Aspergillus oryzae Beta galactosidase (Aspergillus oryzae, UniProt Q2UCU3); assay: Spectrofluorimetric detection of 1.0×10^-12 M enzyme with conjugate substrate
Protocol: Experimental conditions: Ten microliters of 1.0×10^-10 M Aspergillus oryzae Beta galactosidase (Cal Biochem) in 100 mM citrate phosphate, pH 5, with 0.05% w/v gelatin (Buffer A) was added to one milliliter of 1.6 mM compound 15 in Buffer A, yielding a final enzyme concentration of 1.0×10^-12 M. One half milliliter of this reaction mixture was monitored in a spectrofluorimeter in a two millimeter cuvette with instrument settings of 540 nm excitation, 580 emission and 5 nm slit widths. The signal was measured on a chart recorder at a speed of one centimeter per minute and at a sensitivity setting that gave fifteen percent deflection with 1.7×10^-7 M Sulforhodamine 101 in ethanol.

[4] = reactant 1.7 × 10^-5 M, temperature 36.5, 0.85 units Aspergillus oryzae β-galactosidase, pH 7.0 (Table 5)

Chain of Aspergillus oryzae β-galactosidase (Q2UCU3 19-1005): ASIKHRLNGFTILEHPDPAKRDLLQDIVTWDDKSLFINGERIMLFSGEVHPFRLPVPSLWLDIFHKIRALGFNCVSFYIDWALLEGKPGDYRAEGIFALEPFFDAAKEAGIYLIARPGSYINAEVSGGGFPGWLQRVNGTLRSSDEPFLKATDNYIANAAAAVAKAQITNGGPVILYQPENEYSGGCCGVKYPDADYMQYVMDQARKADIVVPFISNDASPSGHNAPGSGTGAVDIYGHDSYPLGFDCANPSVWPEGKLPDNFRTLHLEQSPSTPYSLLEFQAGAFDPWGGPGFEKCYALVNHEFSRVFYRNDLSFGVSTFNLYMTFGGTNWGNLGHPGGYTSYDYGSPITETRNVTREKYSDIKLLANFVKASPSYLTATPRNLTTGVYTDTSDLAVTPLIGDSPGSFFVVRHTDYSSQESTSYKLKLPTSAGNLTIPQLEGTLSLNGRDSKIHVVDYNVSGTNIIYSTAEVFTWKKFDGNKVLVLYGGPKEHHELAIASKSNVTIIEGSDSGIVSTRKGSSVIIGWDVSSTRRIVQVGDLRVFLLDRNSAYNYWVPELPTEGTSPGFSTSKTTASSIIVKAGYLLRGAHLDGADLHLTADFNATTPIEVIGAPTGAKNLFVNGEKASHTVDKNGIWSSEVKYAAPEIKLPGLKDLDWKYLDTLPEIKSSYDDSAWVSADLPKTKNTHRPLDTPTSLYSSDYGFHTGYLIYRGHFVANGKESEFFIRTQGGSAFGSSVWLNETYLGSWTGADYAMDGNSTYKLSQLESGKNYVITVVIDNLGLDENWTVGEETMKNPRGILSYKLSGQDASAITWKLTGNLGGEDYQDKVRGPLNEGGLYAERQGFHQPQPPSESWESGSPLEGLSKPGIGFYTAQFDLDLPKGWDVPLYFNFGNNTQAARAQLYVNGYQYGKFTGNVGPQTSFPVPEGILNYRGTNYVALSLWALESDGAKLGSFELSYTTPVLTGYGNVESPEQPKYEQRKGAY
Chain of Aspergillus oryzae Beta galactosidase (Q2UCU3 19-1005): as above
Chain of E. coli β-galactosidase (P00722 whole entry): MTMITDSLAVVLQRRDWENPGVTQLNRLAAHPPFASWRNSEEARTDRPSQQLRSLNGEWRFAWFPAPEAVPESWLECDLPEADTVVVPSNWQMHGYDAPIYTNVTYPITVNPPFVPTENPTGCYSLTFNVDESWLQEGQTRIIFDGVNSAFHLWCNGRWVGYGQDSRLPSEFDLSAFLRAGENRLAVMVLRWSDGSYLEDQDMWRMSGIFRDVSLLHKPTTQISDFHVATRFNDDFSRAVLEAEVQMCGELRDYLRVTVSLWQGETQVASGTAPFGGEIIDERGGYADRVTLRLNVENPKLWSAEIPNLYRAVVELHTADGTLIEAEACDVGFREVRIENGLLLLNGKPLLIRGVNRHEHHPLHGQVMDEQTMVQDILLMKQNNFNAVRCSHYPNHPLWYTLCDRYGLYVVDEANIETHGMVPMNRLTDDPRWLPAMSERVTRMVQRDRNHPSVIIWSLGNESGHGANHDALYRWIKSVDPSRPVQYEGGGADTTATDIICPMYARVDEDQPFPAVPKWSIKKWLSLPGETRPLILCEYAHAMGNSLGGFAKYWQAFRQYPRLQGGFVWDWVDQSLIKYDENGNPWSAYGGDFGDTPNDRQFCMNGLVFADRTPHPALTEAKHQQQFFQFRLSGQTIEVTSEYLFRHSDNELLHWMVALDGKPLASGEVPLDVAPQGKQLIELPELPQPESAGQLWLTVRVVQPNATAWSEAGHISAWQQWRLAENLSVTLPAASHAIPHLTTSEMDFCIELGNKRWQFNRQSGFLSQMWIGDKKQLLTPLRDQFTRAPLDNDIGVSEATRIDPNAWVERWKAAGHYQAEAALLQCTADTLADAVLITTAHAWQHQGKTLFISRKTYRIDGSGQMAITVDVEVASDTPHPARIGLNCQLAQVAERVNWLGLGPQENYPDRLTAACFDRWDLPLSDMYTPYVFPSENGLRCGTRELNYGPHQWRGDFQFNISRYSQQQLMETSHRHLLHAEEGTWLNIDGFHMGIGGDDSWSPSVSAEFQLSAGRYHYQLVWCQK

Compound | Measured Rate of Reaction (E. coli β-galactosidase) [µmol/min] | Measured Rate of Reaction ([1]; pH 5.5 (Table 6)) [µmol/min] | Measured Rate of Reaction ([1]; pH 7.0 (Table 6)) [µmol/min] | Measured Rate of Reaction ([2]; 25° C., 10^-3 M, Asp. ory. β-galactosidase 0.5 units, pH 5.5 (Table 6)) [µmol/min] | Measured Rate of Reaction ([2]; 25° C., 10^-3 M, Asp. ory. β-galactosidase 0.85 units, pH 7.0 (Table 6)) [µmol/min] | Measured Rate of Reaction [2, 4] [µmol/min] | Measured Rate of Reaction ([2]; reactant 10^-3 M, temperature 25, 0.5 units Aspergillus oryzae β-galactosidase, pH 5.5 (Table 5)) [µmol/min] | Measured Rate of Reaction ([2]; reactant 10^-3 M, temperature 25, 0.85 units Aspergillus oryzae β-galactosidase, pH 7.0 (Table 5)) [µmol/min] | Measured Rate of Reaction ([2]; reactant 10^-3 M, temperature 25, 1.0 units Aspergillus oryzae β-galactosidase, pH 5.5 (Table 5)) [µmol/min] | Measured Rate of Reaction ([2]; reactant 10^-3 M, temperature 25, 4.2 units Aspergillus oryzae β-galactosidase, pH 7.0 (Table 5)) [µmol/min] | Measured Rate of Reaction (in words: hydrolysis after 4 days) ([1]; 36.5° C., 1.7 × 10^-5 M, pH 7.0, cell reads 'incomplete hydro-lysis after 4 days' (Table 6)) | Measured Rate of Reaction ([2]; 36.5° C., 1.7 × 10^-5 M, Asp. ory. β-galactosidase 0.85 units, pH 7.0 (Table 6)) [µmol/min] | signal generated by the substrate solution alone (no enzyme) ([3]; 1.6 mM substrate in Buffer A pH 5, without enzyme, fluorescence over time) | increase in deflection (fluorescence signal) of the enzyme reaction mixture ([3]; 1.6 mM substrate, 1.0×10^-12 M enzyme, 100 mM citrate phosphate pH 5 with 0.05% gelatin, ten minute interval, 540 nm excitation, 580 emission)
CCN(C(=O)Oc1ccc([N+](=O)[O-])cc1)c1cc(S(=O)(=O)N(C)C)ccc1O[C@@H]1O[C@H](CO)[C@H](O)[C@H](O)[C@H]1O [Compound 6, 2-[N-ethyl N-carbo (p-nitrophenoxy)]-4-dimethylamino sulfonyl phenyl-β-D-galactopyranoside] | 0.00006 | 0.0094 | 0.00075 | 0.028 | 0.0091 | 0.0065 | 0.028 | 0.009 | 0.066 | 0.039 |  |  |  | 
CCN(C(=O)Oc1ccc2nc3ccc(=O)cc-3oc2c1)c1cc(S(=O)(=O)N(C)C)ccc1O[C@@H]1O[C@H](CO)[C@H](O)[C@H](O)[C@H]1O [Compound 8, 2-[N-ethyl-N-carbo (resorufinyl)]-4-dimeehylamino sulfonylphenyl-β-D-galactopyranoside] |  |  |  |  |  | 0.0015 |  |  |  |  | incomplete | 0.0015 |  | 
CCN(C(=O)Oc1ccc2nc3ccc(=O)cc-3oc2c1)c1cc(S(=O)(=O)N2CCN(C(=O)CCC(=O)O)CC2)ccc1O[C@@H]1O[C@H](CO)[C@H](O)[C@H](O)[C@H]1O [Compound 15] |  |  |  |  |  |  |  |  |  |  |  |  | No increase in the signal | one and one half percent increase in deflection
